The values below come from US20030195242A1, “Use of Cox-2 inhibitors to prevent recurrences of herpesvirus infections” (priority 2002, published 2003).

Each structure is given as a SMILES string.

Holding throughout (assay type): in vivo, BALB/c mice
The subject of test [1] is McKrae strain of HSV-1. Description: Quantitation of viral DNA by PCR in cornea and trigeminal ganglion of latently infected mice (ASA). Conditions: pooled from six mice. From the text:
Quantitation of viral DNA in tissue homogenates was made using the polymerase chain reaction (PCR), as previously reported. See B. M. Gebhardt et al., “9-(4-hydroxybutyl)-N^2-phenylguanine (HBPG), a thymidine kinase inhibitor, suppresses herpes virus reactivation in mice,” Antiviral Res., vol. 30, pp. 87-94 (1996); and J. M. Hill et al., “Quantitative analysis of polymerase chain reaction products by dot blot,” Analyt. Biochem., vol. 235, pp. 44-48 (1996). In brief, the procedure involves comparing DNA extracted from experimental and control tissue samples containing viral DNA, and performing serial dilutions with DNA from homologous tissue homogenates of uninfected animals. Using a log dilution series and previously determined quantities of viral DNA, it is possible to obtain a series of curves which permit the sensitive and reproducible determination of viral DNA in experimental samples. The sensitivity of this procedure permits the determination of differences of 100 viral genome equivalents per sample. In each experimental series, standard curves were conducted along with the analyses of the tissue homogenates from experimental (drug treated) and control (placebo treated) mice.
(§1) To test the effect of acetylsalicylic acid (ASA) on reactivation of HSV induced by heat stress, two sets of experiments were performed. In one set, groups of mice with latent HSV were immersed in 43° C. water up to their necks for 10 minutes. Following the hyperthermic stress, the animals were dried and given an intraperitoneal (IP) injection of 0.1 mg of ASA (Sigma Chemical Co., St. Louis, Mo.) suspended in 0.1 ml saline. At 8 and 16 hours after hyperthermia, the animals were again treated with ASA. Control mice were given IP injections of saline on the same schedule. At 24 hr after hyperthermic stress, the eyes were swabbed, the mice were sacrificed, and the corneas and trigeminal ganglia analyzed for infectious virus and viral DNA.
(§2) In a second experiment, groups of mice were treated IP for 3 days prior to hyperthermic stress at 8 hr intervals on each of the 3 days. The animals were then heat stressed, treated immediately after stress with ASA, and treated at 8 and 16 hr after hyperthermic stress. Control mice were given IP injections of saline on the same schedule. Two additional groups of mice were prophylactically treated by oral administration of 0.1 mg ASA or saline on the same dose schedule. In each experiment, animals were subdivided into those which were hyperthermically stressed and those which were not stressed. As above, the eyes of these animals were swabbed at 24 hr after stress and then sacrificed for analysis of infectious virus and viral DNA in their corneas and trigeminal ganglia.

Test [2] deals with McKrae strain of HSV-1. Put plainly: Heat-stress reactivation of latent HSV-1 in mice: infectious virus in cornea and trigeminal ganglia homogenates (ASA). As for the experimental part: (§3) Ocular swabs were immersed in 0.2 ml of complete tissue culture medium consisting of RPMI-1640, 10% fetal bovine serum (FBS), and an antibiotic-antimycotic mixture (Life Technologies, Grand Island, N.Y.). The swabs in culture medium were stored at 4° C. until testing by plaque assay. The determination of infectious virus in the cornea and in the trigeminal ganglia of animals were performed in a similar manner. Pairs of corneas and ganglia from individual mice were placed in separate tubes in 0.2 ml of complete medium, homogenized, clarified by centrifugation at 14,000×g for 5 minutes and the supernatant tested for infectious virus on Vero cells.
(§4) Male BALB/c strain mice (The Jackson Laboratory, Bar Harbor, Me.) were infected at 5 weeks of age by topical application of 5×10^5 plaque forming units of the McKrae strain HSV-1 following superficial scratching of the cornea. Documentation of the success of viral infection was determined by culturing ocular swabs taken on days 3 and 5 after infection. Animals without infectious virus on both days 3 and 5 in both eyes were excluded from use in these experiments. Thirty days after infection the eyes were swabbed to establish that infectious virus was no longer present on the ocular surface. Groups of uninfected age and sex matched mice were used as control animals in this study.
as §1, §2
(§5) Control mice for each of these experiments included animals which were latent for HSV-1 but which were not heat stressed. Subsets of this control group included animals placebo-treated and animals treated with ASA. Two additional control groups of animals were those which were not latent for HSV-1, but which were either treated with placebo or ASA on the schedules outlined above.

Test [3] deals with McKrae strain of HSV-1. Description: Heat-stress reactivation of latent HSV-1 in mice: infectious virus on ocular surface swabs (ASA). As to the method:
The McKrae strain of HSV-1 was propagated in Vero cells (ATCC No. CCL-81, American Type Culture Collection, Manassass, Va.), titered by viral plaque assay, and stored at −70° C. until used to infect animals.
as §3, §4, §1, §2, §5

The test system of test [4] is McKrae strain of HSV-1. Description: Heat-stress reactivation of latent HSV-1 in mice: infectious virus on the ocular surface (celecoxib). To be noted: not stressed. From the text:
(§6) To test the effect of a selective COX-2 inhibitor on recurrence of HSV, female BALB/c mice (The Jackson Laboratory, Bar Harbor, Me.) at 4 weeks of age were used. The strain of HSV and the method of propagation were as described in Example 1.
(§7) The mice were infected by the topical ocular route, and the establishment of a corneal infection was documented by slit lamp examination and ocular swabs on day 3 after infection. Only animals which were successfully infected were retained for use in these experiments. Thirty days after infection, groups of 15 latently infected and 15 uninfected mice were treated with the COX 2 inhibitor, celecoxib (G. D. Searle & Co., Skokie, Ill.). The dose of celecoxib that would inhibit viral reactivation was determined in a preliminary experiment in which groups of mice were injected intraperitoneally with 0.1, 0.5, 1.0, and 5.0 mg of celecoxib four times daily. The mice were treated one day before heat stress and the day of the heat stress. […] This dosage was used in all subsequent experiments.
(§8) Two days prior to hyperthermic stress, uninfected mice and latently infected mice were treated four times daily with celecoxib at a concentration of 0.5 mg per treatment. […] Units of Infectious virus were recorded as units of cytopathic effect over a period of seven days. […] The units of cytopathic effect were recorded over a seven day incubation period. […]

Test [5] relates to McKrae strain of HSV-1. Put plainly: Preliminary dose-finding experiment for inhibition of viral reactivation by celecoxib. Conditions: IP four times daily; 0.1, 0.5, 1.0 and 5.0 mg tested; one day before and day of heat stress. As to the method:
as §7

In test [6] the test system is McKrae strain of HSV-1. Description: Heat-stress reactivation of latent HSV-1 in mice: infectious virus in the trigeminal ganglia (celecoxib). Conditions: not stressed.
Text: as §6, §7, §8

The mark [7] stands for this setting: Cornea, ASA from time of hyperthermic stress, 24 h after stress.
[8] abbreviates: Prophylactic ASA IP, 3 days prior to stress, cornea, 24 hrs after stress.
The mark [9] stands for this setting: Prophylactic ASA IP, 3 days prior to stress, trigeminal ganglia, 24 hrs after stress.
[10] abbreviates: Prophylactic ASA oral gavage 0.1 mg, 3 days prior to stress, cornea, 24 hrs after stress.
The mark [11] stands for this setting: Prophylactic ASA oral gavage 0.1 mg, 3 days prior to stress, trigeminal ganglia, 24 hrs after stress.
[12] abbreviates: Trigeminal ganglia, ASA from time of hyperthermic stress, 24 h after stress.
Where [13] appears, read: Experiment 1, heat stressed, ASA 0.1 mg IP after stress and at 8 and 16 h, swabs 24 hrs after heat stress.
The mark [14] stands for this setting: Experiment 1, latent mice not stressed, ASA-treated.
[15] abbreviates: Experiment 2, heat stressed, ASA 0.1 mg IP after stress and at 8 and 16 h, swabs 24 hrs after heat stress.
Where [16] appears, read: Experiment 2, latent mice not stressed, ASA-treated.
[17] abbreviates: Experiment 3, heat stressed, ASA 0.1 mg IP after stress and at 8 and 16 h, swabs 24 hrs after heat stress.
Setting [18] is: Experiment 3, latent mice not stressed, ASA-treated.
The mark [19] stands for this setting: 0.5 mg celecoxib four times daily IP for two days.
Setting [20] is: 0.5 mg celecoxib four times daily orally for two days.

`CC(=O)Oc1ccccc1C(=O)O` [ASA, acetylsalicylic acid]: the “Viral DNA (genome equivalents)” value in the test with McKrae strain of HSV-1 [1] (ASA prophylaxis prior to heat stress, heat stressed, TG) was 4.9 × 10^4 genome equivalents; in the test with McKrae strain of HSV-1 [1] (ASA prophylaxis prior to heat stress, heat stressed, cornea) it was 0.4 × 10^4 genome equivalents; in the test on McKrae strain of HSV-1 [1] (ASA prophylaxis schedule, not stressed, TG), 2.3 × 10^2 genome equivalents; in the test with McKrae strain of HSV-1 [1] (ASA prophylaxis schedule, not stressed, cornea), <1 × 10^2 genome equivalents; in the test with McKrae strain of HSV-1 [1] (Heat stressed, TG, ASA from time of stress) it was 2.1 × 10^4 genome equivalents; in the test with McKrae strain of HSV-1 [1] (Heat stressed, cornea, ASA from time of stress), 0.9 × 10^3 genome equivalents. For the same compound, the “Viral DNA (genome equivalents)” value is 1.5 × 10^2 genome equivalents in the test with McKrae strain of HSV-1 [1] (Not stressed, TG, ASA-treated) and <1 × 10^2 genome equivalents in the test on McKrae strain of HSV-1 [1] (Not stressed, cornea, ASA-treated). The “Infectious Virus (no. positive/total), cornea homogenates” value with McKrae strain of HSV-1 [2] (setting [7]) is given as 5/36; in the test with McKrae strain of HSV-1 [2] (setting [8]), 2/10; with McKrae strain of HSV-1 [2] (setting [10]), 2/14. The “Percent of cornea homogenate cultures which contained virus” value in the test on McKrae strain of HSV-1 [2] (setting [7]) is “(14%)”; in the test with McKrae strain of HSV-1 [2] (setting [8]) it was 20%; in the test on McKrae strain of HSV-1 [2] (setting [10]), 14%. The “Infectious Virus (no. positive/total), trigeminal ganglia homogenates” value in the test on McKrae strain of HSV-1 [2] (setting [9]) was 3/10; in the test on McKrae strain of HSV-1 [2] (setting [11]), 4/14; in the test on McKrae strain of HSV-1 [2] (setting [12]), 8/36. The “Percent of trigeminal ganglia homogenate cultures which contained virus” value was 30% in the test with McKrae strain of HSV-1 [2] (setting [9]), 29% in the test with McKrae strain of HSV-1 [2] (setting [11]) and “(22%)” with McKrae strain of HSV-1 [2] (setting [12]). In the test with McKrae strain of HSV-1 [3] (ASA IP or orally for three days prior to hyperthermic stimulus, data not shown), the “Levels of infectious virus in ocular tear film compared to placebo-treated mice” value is reported as “significantly lower”. Besides, the “Infectious Virus (no. positive/total), ocular surface swabs” value with McKrae strain of HSV-1 [3] (setting [13]) is reported as 2/12; in the test on McKrae strain of HSV-1 [3] (setting [14]), 0/10; in the test with McKrae strain of HSV-1 [3] (setting [15]), 3/12; in the test with McKrae strain of HSV-1 [3] (setting [16]), 0/8; in the test on McKrae strain of HSV-1 [3] (setting [17]), 3/12; in the test with McKrae strain of HSV-1 [3] (setting [18]), 0/10. The “Percent of ocular swab cultures which contained virus” value in the test with McKrae strain of HSV-1 [3] (setting [13]) was “(17%)”; in the test on McKrae strain of HSV-1 [3] (setting [14]) it was “(0%)”; in the test on McKrae strain of HSV-1 [3] (setting [15]) it was “(25%)”; in the test on McKrae strain of HSV-1 [3] (setting [16]), “(0%)”; with McKrae strain of HSV-1 [3] (setting [17]), “(25%)”; in the test with McKrae strain of HSV-1 [3] (setting [18]), “(0%)”.
With `Cc1ccc(-c2cc(C(F)(F)F)nn2-c2ccc(S(N)(=O)=O)cc2)cc1` [celecoxib], the results for the “Infectious Virus on the Ocular Surface (mice positive/total)” value with McKrae strain of HSV-1 [4] (setting [19]) and with McKrae strain of HSV-1 [4] (setting [20]) were 0/12 and 0/14, respectively. Also, in the test with McKrae strain of HSV-1 [5], the “Most effective dose in preventing viral recurrence” value was found to be 0.5 mg. In addition, the “Infectious Virus in the Trigeminal Ganglia (mice positive/total)” value in the test on McKrae strain of HSV-1 [6] (setting [19]) is listed as 0/12; in the test on McKrae strain of HSV-1 [6] (setting [20]), 0/10.
